Experimental data from patent US7655804B2, “Diketohydrazine derivative compounds and drugs containing the compounds as the active ingredient” (Ono Pharmaceutical Co., Ltd., priority 2002, dated 2010).

Biological target: T1, cathepsin K (Homo sapiens, UniProt P43235)
T1 sequence (P43235 115-329): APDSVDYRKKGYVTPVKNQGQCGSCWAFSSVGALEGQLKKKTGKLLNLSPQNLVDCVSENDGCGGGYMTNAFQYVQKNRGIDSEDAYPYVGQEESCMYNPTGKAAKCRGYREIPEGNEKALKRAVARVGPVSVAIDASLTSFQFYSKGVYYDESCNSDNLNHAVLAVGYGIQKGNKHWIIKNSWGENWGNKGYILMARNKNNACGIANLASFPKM
Experiment: Measurement of cathepsin K inhibitory activity
Assay type: biochemical
Details: Dixon plot, 37° C., pH 5.5
Description: 65 μL of cathepsin K enzyme reaction buffer (50 mmol/L of 2-(N-morpholino)ethanesulfonate, 2 mmol/L of ethylenediaminetetraacetate (EDTA) and 4 mmol/L of dithiothreitol (DTT) were mixed to adjust to pH 5.5), 5 μL of cysteine protease inhibitor solution of several concentrations, 20 μL of synthesized substrate (t-butyloxycarbonyl-L-alanyl-glycyl-L-prolyl-L-arginine-4-methyl-chromanyl-7-amide) solution of several concentrations and 10 μL of cathepsin K enzyme solution were mixed and the increase of fluorescence intensity when reacted at 37° C. was measured (λex (excitation wavelength)=355 nm, λem (fluorescence wavelength)=460 nm). As to the substrate and the compound of the present invention, enzyme reactions were carried out in combination of several appropriate concentrations and Dixon plotting was prepared, to define the absolute value of X-coordinate of the intersection point of the graph as Ki value.

Ki [nM]	Structure (SMILES)
14	CC(C)(C)CC(NC(=O)C1CCCCCC1)C(=O)C(=O)NN1CCCS1(=O)=O (stereo not drawn) [2(6)]
2.5	CC(C)C[C@H](NC(=O)C1CCCCC1)C(=O)C(=O)NN=C1SCCN1C [8(1)]
4	CC(C)(C)CC(NC(=O)C1CCCCC1)C(=O)C(=O)NN1C(=O)CCC1=O (stereo not drawn) [example 5]
